These results are taken from PubChem BioAssay (NCI).

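Compound exposure: 48 hours, 5 concentrations, 96-well plates. GI50 marks 50% less growth. At the TGI there is no net growth.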

Holding throughout (test): NCI anticancer screen, dose series, 48 h
Assay [1] concerns SF-295 CNS.
The test system of assay [2] is COLO 205 colon.
Assay [3] concerns HT29 colon.
Assay [4] deals with U251 CNS.
Assay [5] deals with UACC-62 melanoma.
Assay [6] relates to SW-620 colon.
The test system of assay [7] is NCI-H522 lung.
The test system of assay [8] is RPMI-8226 leukemia.
In assay [9] the test system is UACC-257 melanoma.
Assay [10] has as its system OVCAR-4 ovarian.

On to `Nc1n[nH]c(CCc2nc(N)n[nH]2)n1`, for which the TGI in assay [1], in assay [2], in [3], in [4], in assay [5] and in assay [6] was more than 100 µM in each case. The TGI in [7], in [8], in assay [9] and in [10] was more than 100 µM throughout.

With `CCN(CC)CCOc1ccc(C(=O)/C=C\c2ccc(Cl)cc2Cl)cc1`, the GI50 in assay [1] is 8.7 µM; in [2] it was 1.95 µM; in [3] it was 2.06 µM; in assay [4] it was 7.16 µM; in assay [5] it was 2.08 µM; in assay [6], 1.87 µM. Further, the GI50 in assay [7] was 15.2 µM; in assay [8], 1.94 µM; in assay [9] it was 4.51 µM; in assay [10], 3.82 µM. The TGI in assay [1] was found to be 22.3 µM; in assay [2], 5.15 µM; in [3] it was 5.62 µM; in [4] it was 21.3 µM; in assay [5], 4.71 µM; in [6], 4.36 µM. In addition, the TGI in assay [7] is 35.6 µM; in assay [8], 6.34 µM; in [9], 15.2 µM; in assay [10], 16.6 µM.

With `O=C(Nc1ccn(CCI)c(=O)n1)c1ccccc1`, the TGI in assay [1], in [2], in assay [3], in assay [4], in [5] and in assay [6] was more than 100 µM throughout. Also, the TGI in [7], in assay [8], in assay [9] and in assay [10] was more than 100 µM throughout.

With `CN(C)CCN1C(=O)c2cccc3cccc(c23)C1=O`, the GI50 is 11.1 µM in assay [1]; 7.04 µM in [2]; 11.7 µM in assay [3]; 19.8 µM in [4]; 18.1 µM in [5]; 11.7 µM in assay [6]. The GI50 in assay [7] is 15.1 µM; in assay [8], 16.6 µM; in [9] it was more than 25 µM; in [10], more than 25 µM. The TGI in assay [1], in [2], in [3], in assay [4], in assay [5] and in assay [6] was more than 25 µM in each case. For the same compound, the TGI in assay [7], in [8], in assay [9] and in assay [10] was more than 25 µM in each case.

As for `O=C1NCCS(=O)(=O)/C1=C\C=C\c1cccc(C(F)(F)F)c1`, the GI50 is 3.71 µM in assay [1]; 2.31 µM in assay [2]; 2.3 µM in assay [3]; 1.67 µM in assay [4]; 1.46 µM in assay [5]; 2.65 µM in assay [6]. Besides, the GI50 in assay [7] is 1.43 µM; in assay [8], 2.19 µM; in [9], 1.83 µM; in [10] it was 4.84 µM. Also, the TGI in assay [1] stood at 15 µM; in assay [2], 5.2 µM; in [3], 5.38 µM; in assay [4] it was 3.86 µM; in assay [5], 3.89 µM; in assay [6], 7.56 µM. Further, the TGI is 3.19 µM in assay [7], 8.31 µM in assay [8], 9.22 µM in [9] and 19.2 µM in assay [10].

With `Cn1c(=O)c(Oc2ccc(F)cc2F)cc2cnc(NCCS(C)(=O)=O)nc21`, the GI50 in [1], in [2], in [3], in assay [4], in assay [5] and in [6] was more than 25 µM each time. The GI50 in [7], in assay [8], in [9] and in assay [10] was more than 25 µM in each case. Also, the TGI in assay [1], in assay [2], in assay [3], in assay [4], in assay [5] and in assay [6] was more than 25 µM throughout. The TGI in assay [7], in assay [8], in assay [9] and in [10] was more than 25 µM in each case.

Turning to `Cc1cccc(Nc2cnc(N)nc2N)c1`, the TGI in [1], in assay [2], in [3], in [4], in assay [5] and in assay [6] was more than 100 µM each time. In addition, the TGI in assay [7], in assay [8], in assay [9] and in assay [10] was more than 100 µM in each case.

In the case of `C=CS(=O)(=O)CCN1CC1`, the TGI in assay [1], in assay [2], in [3], in assay [4], in assay [5] and in assay [6] was more than 10 µM throughout. In addition, the TGI in [7], in assay [8], in assay [9] and in assay [10] was more than 10 µM throughout.

As to `CCN(CC)CCSCCCNc1c2ccc(Cl)cc2nc2ccc(OC)cc12`, the GI50 was 1.13 µM in assay [1]; 0.8 µM in assay [2]; 0.423 µM in [3]; 1.7 µM in assay [4]; 1.93 µM in [5]; 0.511 µM in assay [6]. Also, the GI50 in [7] was 1.39 µM; in assay [8], 1.3 µM; in assay [9], 2.06 µM; in assay [10] it was 0.756 µM. Also, the TGI in [1] was 2.76 µM; in assay [2], 2.25 µM; in [3], 1.94 µM; in assay [4], 3.32 µM; in assay [5], 3.87 µM; in assay [6], 3.33 µM. Moreover, the TGI in assay [7] amounted to 3.13 µM; in assay [8], 4.78 µM; in assay [9], 3.85 µM; in assay [10], 3.03 µM.
